Reference: patent US20250268894A1, “MACROCYCLE COMPOUNDS FOR THE TREATMENT OF CANCER” (Hoffmann-La Roche Inc., priority 2022, published 2025)

Tested on: Miapaca-2 KRAS G12C + T58I cells
Test: Stable KRAS mutant cell line viability assay (CellTiter-Glo), G12C + T58I
Assay type: cell-based
Conditions: Homo sapiens, MIA PaCa-2, 72 h, Miapaca-2 mutant cells, 3 d
Excerpt: The aim of the study was to determine the potency and efficacy of compounds for cell proliferation using CellTiter-Glo® (CTG) Luminescent Cell Viability Assay (Promega Corp., Madison, WI). We cloned […] KRAS^G12C variant sequences with secondary mutations (V8A, V9Y, S17E, T58I, A59T, S65W, R68S, D69P, M72I, D92R, H95N, Y96D, Q99F, Q99W, Y96H, and F156L) into the Miapaca-2. Totally 14 stable Miapaca-2 mutant cell lines were established through lentivirus infection. For the cell viability assay, cells were dosed with compounds in a 9-point dose-response using a 4 fold dilution series at a top dose of 10 μM. KRAS mutant cells were maintained in DMEM+10% FBS+2.5% HI Horse serum+1% PS+1 μg/mL Puromycin and seeded into 96-well plates at 800-1,500 cells per well 24 h before compound addition and then incubated with compound for 3 d before assaying viability (CellTiter-Glo, Promega). Assays were performed in biological duplicates. Nonlinear regression curves were fitted using Xfit. IC50 (absolute IC50) is the dose at which the estimated viability is 50% relative to untreated wells.

CO[C@@H](C)c1ncc(N2CCN(CC(F)(F)F)CC2)cc1-c1c2c3cc(ccc3n1CC(F)(F)F)-c1csc(n1)C[C@H](NC(=O)[C@H](C(C)C)N(C)C(=O)N1CCOCC1)C(=O)N1CCC[C@H](N1)C(=O)OCC(C)(C)C2 (atropisomer, axis not shown; (M)) [Example 6]
IC50: 7 nM
